Results published in patent US20090156646A1, “PYRIDYLPHENOL COMPOUND AND USE THEREOF” (TAKEDA PHARMACEUTICAL COMPANY LIMITED, priority 2005, published 2009).
pIC50: −log10 of the molar value. Counter-ions that a name gives are not always drawn.

Tests used:
[1] = target: T1, human metastin receptor hOT7T175 (Homo sapiens, UniProt Q969F8, L364H); assay: binding inhibiting activity: 125I-metastin (40-54) binding to cell membrane fraction of h175 KB34 cells; details: room temperature 60 minutes, read-out: binding inhibiting activity, represented by the IC50 value
T1 construct: encoding the entire length of human metastin receptor hOT7T175; expressed in transfected cells; host or cells: CHO/dhFr- cells (ATCC #CRL-9096) stably transfected with pAKKO-hOT7T175; clone h175-16 was used as whole cells for FLIPR
Method: cDNA fragments (SEQ ID NO: 2) encoding the entire length of human metastin receptor hOT7T175 were incorporated into expression vector pAKKO1.11H to produce animal cell expression plasmids pAKKO-hOT7T175. CHO/dhFr-cells (ATCC, #CRL-9096) were seeded onto 6 cm culture dishes (Becton Dickinson) at a density of 0.3×10^6 cells/dish, and cultured in the conditions of 48 hours, 37° C. and 5% CO2. 5 μg pAKKO-hOT7T175 plasmid DNA was transfected to the resultant cells by a known method (described in Example 3 of WO 00/24890) using the Cellphect Transfection Kit (Amersham, #27-9268-01). The DNA-transfected cells were cultured in the Dulbecco's modified Eagle medium (DMEM) (Sigma, #D6046) containing 10% dialyzed FBS (Biowest, #S180D), 1× Non-Essential Amino Acid (Invitrogen, #11140-050) and 50 μg/ml Gentamycin (Invitrogen, #15750-060; and cell strains stably expressing the plasmid genes were selected. The obtained 41 clones were treated with the FLIPR assay (in accordance with the method described in Example 3 of WO 00/24890), and the reactivity to the human metastin […] (Nos. 40 to 54 of the human metastin sequence; Peptide Institute, Inc., #4389-v) was evaluated. In the end, h175 KB34 cell strains were selected. By substantially the same method, h175-16 cell strains were also produced.
The h175 KB34 cells were cultured to be on the stage of 40-50% confluency using a cell factory (Nunc, #164327), and then cells were recovered in the following method.
First, the medium was disposed, and the cells were washed twice with 200 ml EDTA/PBS(−). Another 200 ml of EDTA/PBS(−) was added, and the cells were kept still for 20 minutes at room temperature until being peeled off. The cells were recovered into four 50 ml tubes (Becton Dickinson, #352070), and centrifuged (2,000 rpm, 10 min., 4° C.) by a reduced performance centrifuge (TOMY, RL-101). The supernatant was disposed, and the pellets in the four tubes were each suspended with 10 ml EDTA/PBS(−) and collected into one tube (Becton Dickinson, #352070). The pellet was further centrifuged (2,000 rpm, 10 min., 4° C.). The resultant pellet was suspended with 20 ml ice-cooled homogenizer buffer [10 mM NaHCO3, 2 mM EGTA, 0.2 mM magnesium acetate, 10 μg/ml Leupeptin (Peptide Institute, Inc., #4041), 10 μg/ml E-64 (Peptide Institute, Inc., # 4096), 100 μg/ml o-phenanthroline (Dojindo Laboratories), 90 μg/ml PMSF (Wako Pure Chemical Industries, Ltd.), 10 μg/ml Pepstatin A (Peptide Institute, Inc., #4397), pH7.3]. The cell suspension was homogenized 3 times, each for 30 seconds, using a Polytron homogenizer. The resultant homogenate was centrifuged (2,500 rpm, 10 min, 4° C.) using a high performance refrigerated centrifuge (Hitachi, Ltd., CR26H). The supernatant was recovered into a super-centrifuge tube, and super-centrifuged (30,000 rpm, 60 min, 4° C.) using a super-centrifuge (Hitachi, Ltd., SCP70H). 3 ml homogenizer buffer was added to the resultant pellet, and the pellet was suspended by pipetting. 3 ml glycerol (Wako Pure Chemical Industries, Ltd.) was added to the resultant suspension and diluted 2-folds. The resultant substance was used as a cell membrane fraction of the h175 KB34 cells. Each […] of the membrane fraction was put into a 1.5 ml tube (Eppendorf, #0030120.086), stored in a freezer (−30 C) so as not to be frozen, and used for a binding assay.
An assay buffer was prepared on the day of the test by adding, to each 100 ml of an assay basic buffer [20 mM Tris, 2.5 mM Magnesium Acetate, 2 mM EGTA, pH 7.4], 1 mg Leupeptin (Peptide Institute, Inc., 4041), 1 mg E-64 (Peptide Institute, Inc., 4096), 10 mg o-phenanthroline (Dojindo Laboratories), 9 mg PMSF (Wako Pure Chemical Industries, Ltd.) and 1 mg Pepstatin A (Peptide Institute, Inc., 4397). The prepared assay buffer was stored at 4° C. until being used. When the measurement was to be performed with no BSA, the above-described assay buffer was used. […]

T1 sequence (Q969F8 whole entry L364H): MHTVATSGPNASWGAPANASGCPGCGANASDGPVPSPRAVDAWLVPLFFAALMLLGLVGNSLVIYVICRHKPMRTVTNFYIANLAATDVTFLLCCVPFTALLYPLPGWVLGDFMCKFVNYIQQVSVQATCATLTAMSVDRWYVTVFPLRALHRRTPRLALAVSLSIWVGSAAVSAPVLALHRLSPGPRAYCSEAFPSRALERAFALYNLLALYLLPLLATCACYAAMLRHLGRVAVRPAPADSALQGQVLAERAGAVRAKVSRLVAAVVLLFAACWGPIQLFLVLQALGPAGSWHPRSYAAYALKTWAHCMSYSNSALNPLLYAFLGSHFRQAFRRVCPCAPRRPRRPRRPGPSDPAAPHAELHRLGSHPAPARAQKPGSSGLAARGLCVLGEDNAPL

SMILES	pIC50 [1]	melting point [°C]
Cl.N#Cc1c(-c2cccc(NC(=O)[C@@H]3CCCC[C@@H]3N)c2)cc(-c2ccc(F)cc2O)nc1NC(=O)c1ccco1 (racemic) [Example 267, N-{4-[3-({[(1SR,2RS)-2-aminocyclohexyl]carbonyl}amino)phenyl]-3-cyano-6-(4-fluoro-2-hydroxyphenyl)pyridin-2-yl}-2-furamide hydrochloride]	≥ 5.00	224 to 225
Cl.N#Cc1c(-c2cccc(NC(=O)[C@H]3CCC[C@H]3N)c2)cc(-c2ccc(F)cc2O)nc1NC(=O)c1ccco1 (racemic) [Example 278, N-{4-[3-({[(1SR,2RS)-2-aminocyclopentyl]carbonyl}amino)phenyl]-3-cyano-6-(4-fluoro-2-hydroxyphenyl)pyridin-2-yl}-2-furamide hydrochloride]	≥ 5.00	224 to 226
Cl.N#Cc1c(-c2cccc(C(=O)N[C@H]3CCCC[C@H]3N)c2)cc(-c2ccc(F)cc2O)nc1NC(=O)c1ccco1 (racemic) [Example 280, N-{4-[3-({[(1SR,2RS)-2-aminocyclohexyl]amino}carbonyl)phenyl]-3-cyano-6-(4-fluoro-2-hydroxyphenyl)pyridin-2-yl}-2-furamide hydrochloride]	≥ 5.00	250 to 252
Cl.N#Cc1c(-c2cccc(C(=O)N[C@@H]3CCCC[C@H]3N)c2)cc(-c2ccc(F)cc2O)nc1NC(=O)c1ccco1 (racemic) [Example 289, N-{4-[3-({[(1SR,2SR)-2-aminocyclohexyl]amino}carbonyl)phenyl]-3-cyano-6-(4-fluoro-2-hydroxyphenyl)pyridin-2-yl}-2-furamide hydrochloride]	≥ 5.00	285 to 288
N#Cc1c(-c2cccc(CN)c2)cc(-c2ccccc2O)nc1NC(=O)c1cccs1 [Example 1, N-[4-[3-(aminomethyl)phenyl]-3-cyano-6-(2-hydroxyphenyl)pyridin-2-yl]thiophene-2-carboxamide]	≥ 5.00	203 to 205
CN(C)Cc1cccc(-c2cc(-c3ccccc3O)nc(NC(=O)c3cccs3)c2C#N)c1 [Example 2, N-[3-cyano-4-{3-[(dimethylamino)methyl]phenyl}-6-(2-hydroxyphenyl)pyridin-2-yl]thiophene-2-carboxamide]	≥ 5.00	225 to 226
Cl.N#Cc1c(-c2cccc(C(=O)N3CCC(N)CC3)c2)cc(-c2ccccc2O)nc1NC(=O)c1cccs1 [Example 5, N-[4-{3-[(4-aminopiperidine-1-yl)carbonyl]phenyl}-3-cyano-6-(2-hydroxyphenyl)pyridin-2-yl]thiophene-2-carboxamide hydrochloride]	≥ 5.00	215 to 218
Cl.N#Cc1c(-c2cccc(C(=O)NC3CCNCC3)c2)cc(-c2ccccc2O)nc1NC(=O)c1cccs1 [Example 7, N-(3-cyano-6-(2-hydroxyphenyl)-4-{3-[(piperidin-4-ylamino)carbonyl]phenyl}pyridin-2-yl)thiophene-2-carboxamide hydrochloride]	≥ 5.00	254 to 256
Cl.N#Cc1c(-c2cccc(CNC(=O)CN)c2)cc(-c2ccccc2O)nc1NC(=O)c1cccs1 [Example 43, N-[3-cyano-4-{3-[(glycylamino)methyl]phenyl}-6-(2-hydroxyphenyl)pyridin-2-yl]thiophene-2-carboxamide hydrochloride]	≥ 5.00	181 to 186
Cl.N#Cc1c(-c2cccc(CNC(=O)CCN)c2)cc(-c2ccccc2O)nc1NC(=O)c1cccs1 [Example 44, N-[4-{3-[(β-alanylamino)methyl]phenyl}-3-cyano-6-(2-hydroxyphenyl)pyridin-2-yl]thiophene-2-carboxamide hydrochloride]	≥ 5.00	173 to 180
CNCCC(=O)Nc1cccc(-c2cc(-c3ccc(F)cc3O)nc(NC(=O)c3ccco3)c2C#N)c1 [Example 313, N-(3-cyano-6-(4-fluoro-2-hydroxyphenyl)-4-{3-[(N-methyl-β-alanyl)amino]phenyl}pyridin-2-yl)-2-furamide hydrochloride]	≥ 5.00	–
N#Cc1c(-c2cccc(NC(=O)C[C@H]3CCCN3)c2)cc(-c2ccc(F)cc2O)nc1NC(=O)c1ccco1 [Example 314, N-[3-cyano-6-(4-fluoro-2-hydroxyphenyl)-4-(3-{[(2R)-pyrrolidin-2-ylacetyl]amino}phenyl)pyridin-2-yl]-2-furamide hydrochloride]	≥ 5.00	–
CCCC(CC(=O)Nc1cccc(-c2cc(-c3ccc(F)cc3O)nc(NC(=O)c3ccco3)c2C#N)c1)N(CC)CC (centres unmarked) [Example 317, N-[3-cyano-4-(3-{[3-(diethylamino)hexanoyl]amino}phenyl)-6-(4-fluoro-2-hydroxyphenyl)pyridin-2-yl]-2-furamide hydrochloride]	≥ 5.00	–
CN(C)CCN(C)c1cccc(-c2cc(-c3ccc(F)cc3O)nc(NC(=O)c3ccco3)c2C#N)c1 [Example 324, N-[3-cyano-4-{3-[[2-(dimethylamino)ethyl] (methyl)amino]phenyl}-6-(4-fluoro-2-hydroxyphenyl)pyridin-2-yl]-2-furamide]	≥ 5.00	–
N#Cc1c(-c2cccc(CN3CCNCC3)c2)cc(-c2ccc(F)cc2O)nc1NC(=O)c1ccco1 [Example 325, N-{3-cyano-6-(4-fluoro-2-hydroxyphenyl)-4-[3-(piperazine-1-ylmethyl)phenyl]pyridin-2-yl}-2-furamide ditrifluoroacetic acid]	≥ 5.00	–
CCN1CCN(c2cccc(-c3cc(-c4ccc(F)cc4O)nc(NC(=O)c4ccco4)c3C#N)c2)CC1 [Example 330, N-[3-cyano-4-[3-(4-ethylpiperazin-1-yl)phenyl]-6-(4-fluoro-2-hydroxyphenyl)pyridin-2-yl]-2-furamide hydrochloride]	≥ 5.00	–
CN1CCN(Cc2cccc(-c3cc(-c4ccc(F)cc4O)nc(NC(=O)c4ccco4)c3C#N)c2)CC1 [Example 333, N-(3-cyano-6-(4-fluoro-2-hydroxyphenyl)-4-{3-[(4-methylpiperazin-1-yl)methyl]phenyl}pyridin-2-yl)-2-furamide dihydrochloride]	≥ 5.00	–
CCN1CCN(Cc2cccc(-c3cc(-c4ccc(F)cc4O)nc(NC(=O)c4ccco4)c3C#N)c2)CC1 [Example 334, N-[3-cyano-4-{3-[(4-ethylpiperazin-1-yl)methyl]phenyl}-6-(4-fluoro-2-hydroxyphenyl)pyridin-2-yl]-2-furamide dihydrochloride]	≥ 5.00	–
N#Cc1c(-c2cccc(CN3CCCNCC3)c2)cc(-c2ccc(F)cc2O)nc1NC(=O)c1ccco1 [Example 335, N-[3-cyano-4-[3-(1,4-diazepan-1-ylmethyl)phenyl]-6-(4-fluoro-2-hydroxyphenyl)pyridin-2-yl]-2-furamide dihydrochloride]	≥ 5.00	–
